Reference: the supplement of paper PMC8882468

How the values were obtained:
Experiment in all cases: CTG-3D luminescence at 96 h relative to day-0 seeding control (ratio to day 0); higher = more growth / less cytotoxicity; PDxO 3D drug screen, 96 h, CTG-3D normalised to day-0 seeding control.
HCI-025 = test system: HCI-025 (organoid from a breast cancer xenograft)
MDA-MB-231 = test system: MDA-MB-231
HCI-016 = test system: HCI-016 (organoid from a triple-negative breast cancer xenograft)

C[C@H](NC(=O)CCC(F)(F)F)C(=O)N[C@@H]1C(=O)N(CCO)c2ncccc2-c2ccccc21 [crenigacestat]
CTG-3D luminescence at 96 h
Conditions	12.5 pM	0.00025 µM	0.005 µM	0.1 µM	1 µM	10 µM	100 µM	625 fM
HCI-016, days in culture: 153	2.83	1.83	2.67	1.66	2.21	2.33	2.19	2.92
HCI-016, days in culture: 172	2.16	1.87	1.71	1.66	1.58	1.14	1.76	1.73
HCI-016, days in culture: 190	1.45	1.02	1.29	0.549	0.838	1.52	1.74	0.976
HCI-016, days in culture: 199	1.48	1.3	1.49	1.38	1.78	1.57	1.73	1.76
HCI-025, days in culture: 172	2.73	1.6	2.79	2.23	3.2	1.64	1.98	2.44
HCI-025, days in culture: 209	2.02	2.25	2.26	1.61	1.76	1.57	1.45	1.58
HCI-025, days in culture: 218	1.89	2.02	1.67	1.69	1.75	2.32	1.58	2.02

MDA-MB-231
Conditions	CTG-3D luminescence at 96 h
12.5 pM	4.47
0.00025 µM	4.32
0.005 µM	4.4
0.1 µM	4.27
1 µM	4.51
10 µM	4.53
100 µM	4.69
625 fM	4.5
